For twelve molecules, IC50 results are on record in patent US11160797B2, “Pyridinone derivatives and their use as selective ALK-2 inhibitors” (NOVARTIS AG, priority 2017, dated 2021).

In assay [1] the target is ALK2 FOP mutant (aa172-499 R206H) (Homo sapiens (Human), UniProt Q04771, R206H). The assay can be described thus: Caliper biochemical peptide phosphorylation assay, ALK2 FOP. Particulars: Caliper peptide phosphorylation, R206H, 15 uM ATP; read-out: ALK2 FOP EPK IC50.
The test system of assay [2] is HuH7 cells, BMP response element (BRE) luciferase reporter, BMP6 stimulated. The assay can be described thus: BMP signaling reporter gene assay. The assay is classed as cell-based. To be noted: Homo sapiens, Huh-7; BMP6 100 ng/ml; read-out: MSD HuH7 cell BMP reporter IC50. In general terms: A reporter such as luciferase makes a cellular process visible.
Protocol: A human liver hepatocellular carcinoma cell line (HuH7) stably transfected with a reporter plasmid consisting of the human BMP response element (BRE) from the Id1 promoter fused to a luciferase reporter gene was generated through lentiviral transduction.
Assays were performed in 384-well flat bottom polystyrene microtiter plates (cell culture treated) with sterile lids. The cells were starved through medium exchange in Blasticidine- and FCS-free medium 16 h before the assay. Prior to the assay, cells were detached from the stock flask using trypsin/EDTA and counted. A cell suspension in the same medium without Blasticidin and FCS was prepared. 2×10^4 cells in a total volume of 40 ul were added to each well of a plate already containing serial dilutions of each compound in DMSO (final DMSO concentration 0.5%). […] Assay plates are incubated for another 5 hours at 37° C., 5% CO2 before luciferase levels are measured.
The amount of expressed luciferase is quantified using the Steady-Glo® Luciferase Assay System (Promega #E2520).
Assay [3] has as its target T1, wild-type ALK2 (aa172-499) (Homo sapiens (Human), UniProt Q04771). The assay can be described thus: Caliper biochemical peptide phosphorylation assay, ALK2. Particulars: Caliper peptide phosphorylation, 15 uM ATP; read-out: ALK2 IC50.
The target of assay [4] is T1, wild-type ALK2 (aa172-499). Kind of assay: ADPGlo biochemical autophosphorylation assay, ALK2. Particulars: 15 uM ATP.
For a further assay, the target named is ALK1 (aa166-493) (Homo sapiens (Human), UniProt P37023). Kind of assay: Caliper biochemical peptide phosphorylation assay, ALK1. Particulars: 15 uM ATP.
ALK1 (aa166-493), sequence (P37023 166-493): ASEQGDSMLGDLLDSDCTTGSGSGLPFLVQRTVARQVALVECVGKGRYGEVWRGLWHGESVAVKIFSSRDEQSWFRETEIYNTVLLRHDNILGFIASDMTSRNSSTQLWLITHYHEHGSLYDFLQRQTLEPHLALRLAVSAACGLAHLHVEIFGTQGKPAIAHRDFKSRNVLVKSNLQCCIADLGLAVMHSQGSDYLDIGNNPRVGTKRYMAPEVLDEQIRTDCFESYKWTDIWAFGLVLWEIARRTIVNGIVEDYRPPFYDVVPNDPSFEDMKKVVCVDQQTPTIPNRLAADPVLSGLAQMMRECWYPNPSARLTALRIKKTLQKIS
For a further assay, the target named is ALK5 (aa162-503) (Homo sapiens (Human), UniProt P36897). The assay can be described thus: Caliper biochemical peptide phosphorylation assay, ALK5. To be noted: 15 uM ATP. The gist of the method: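 Baculovirus-expressed human GS+kinase-domain constructs (10 nM) with 2 uM fluorescein-labelled peptide and 15 uM ATP in 50 mM Hepes pH 7.5, 1 mM MgCl2, 12 mM MnCl2, 1 mM DTT, 10 uM Na3VO4, 60 min at 30 °C. EDTA stop; phospho/unphosphorylated peptide separated by microfluidic electrophoresis, r = p/(p+s); IC50 at half-maximal signal inhibition.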
ALK5 (aa162-503), sequence (P36897 162-503): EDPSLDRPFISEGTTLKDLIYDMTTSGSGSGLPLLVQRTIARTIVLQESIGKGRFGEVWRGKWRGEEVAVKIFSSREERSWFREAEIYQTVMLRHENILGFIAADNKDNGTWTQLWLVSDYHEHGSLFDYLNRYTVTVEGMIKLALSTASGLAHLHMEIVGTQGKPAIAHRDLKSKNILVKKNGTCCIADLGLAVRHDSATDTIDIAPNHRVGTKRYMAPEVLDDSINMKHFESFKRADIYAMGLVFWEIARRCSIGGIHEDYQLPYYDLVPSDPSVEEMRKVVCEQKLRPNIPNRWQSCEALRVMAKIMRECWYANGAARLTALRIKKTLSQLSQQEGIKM

The target in the next assay is ALK6 (aa168-495) (Homo sapiens (Human), UniProt O00238). The assay can be described thus: Caliper biochemical peptide phosphorylation assay, ALK6. Particulars: 15 uM ATP.
ALK6 (aa168-495), sequence (O00238 168-495): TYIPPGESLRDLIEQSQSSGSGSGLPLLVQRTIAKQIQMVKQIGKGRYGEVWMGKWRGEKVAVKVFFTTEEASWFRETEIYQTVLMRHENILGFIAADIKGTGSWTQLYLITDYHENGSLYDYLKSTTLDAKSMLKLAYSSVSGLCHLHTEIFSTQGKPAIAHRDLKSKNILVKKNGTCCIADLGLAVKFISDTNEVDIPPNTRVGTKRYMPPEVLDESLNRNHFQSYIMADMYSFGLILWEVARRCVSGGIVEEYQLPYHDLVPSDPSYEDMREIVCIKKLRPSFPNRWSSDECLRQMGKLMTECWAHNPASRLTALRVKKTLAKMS
Another assay has as its target ALK3 (aa198-525) (Homo sapiens (Human), UniProt P36894). The assay can be described thus: ADPGlo biochemical autophosphorylation assay, ALK3. To be noted: 15 uM ATP.

ALK2 FOP mutant (aa172-499 R206H), sequence (Q04771 172-499 R206H): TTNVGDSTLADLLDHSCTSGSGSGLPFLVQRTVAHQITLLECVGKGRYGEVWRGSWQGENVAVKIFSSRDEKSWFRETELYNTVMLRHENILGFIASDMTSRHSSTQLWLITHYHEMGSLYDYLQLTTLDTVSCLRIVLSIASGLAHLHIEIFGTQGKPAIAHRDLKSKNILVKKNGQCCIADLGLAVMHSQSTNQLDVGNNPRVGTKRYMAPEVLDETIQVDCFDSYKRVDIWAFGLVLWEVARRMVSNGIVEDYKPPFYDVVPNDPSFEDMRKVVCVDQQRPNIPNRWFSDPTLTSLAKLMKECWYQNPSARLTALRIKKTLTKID
ALK3 (aa198-525), sequence (P36894 198-525): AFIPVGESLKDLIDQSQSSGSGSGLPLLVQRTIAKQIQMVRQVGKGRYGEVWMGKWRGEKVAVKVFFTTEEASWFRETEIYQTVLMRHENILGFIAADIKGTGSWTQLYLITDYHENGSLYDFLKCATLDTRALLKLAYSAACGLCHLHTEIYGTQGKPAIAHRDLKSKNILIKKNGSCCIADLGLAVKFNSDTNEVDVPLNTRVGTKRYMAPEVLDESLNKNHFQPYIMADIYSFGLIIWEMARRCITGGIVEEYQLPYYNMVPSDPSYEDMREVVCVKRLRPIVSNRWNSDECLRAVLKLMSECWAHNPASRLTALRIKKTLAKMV
T1 sequence (Q04771 172-499): as the sequence (Q04771 172-499 R206H) above, with H35R counted along it

The IC50 is the concentration that inhibits the measured activity by half. `CC(C)n1cc(-c2cncc(-c3cc(F)c4c(c3)CC(=O)N4C)c2)ccc1=O` [Example 36, 7-Fluoro-5-(1′-isopropyl-6′-oxo-1′,6′-dihydro-[3,3′-bipyridin]-5-yl)-1-methylindolin-2-one]: the IC50 was 230 nM in assay [1]; 390 nM in assay [2]; 190 nM in assay [3]; 350 nM in assay [4]; 1300 nM against ALK1 (aa166-493); 9.3 µM against ALK5 (aa162-503). Besides, the IC50 on ALK6 (aa168-495) was determined as 2900 nM; on ALK3 (aa198-525), 2400 nM.

Regarding `CC(C)n1cc(-c2cncc(-c3cnc4c(c3)CCC(=O)N4C)c2)ccc1=O` [Example 37, 6-(1′-Isopropyl-6′-oxo-1′,6′-dihydro-[3,3′-bipyridin]-5-yl)-1-methyl-3,4-dihydro-1,8-naphthyridin-2(1H)-one], the IC50 is 240 nM in assay [1]; 300 nM in assay [2]; 240 nM in assay [3]; 290 nM in assay [4]; 1700 nM at ALK1 (aa166-493); over 10 µM against ALK5 (aa162-503). The IC50 against ALK6 (aa168-495) amounted to 5400 nM; on ALK3 (aa198-525), 2500 nM.

Consider `CC(C)n1cc(-c2cncc(-c3ccc4c(c3)CC(=O)N4CC3CCC3)c2)ccc1=O` [Example 38, 1-(cyclobutylmethyl)-5-(1′-isopropyl-6′-oxo-1′,6′-dihydro-[3,3′-bipyridin]-5-yl)indolin-2-one], for which the IC50 in assay [1] is 60 nM; in assay [2] it was 100 nM; in assay [3], 60 nM; in assay [4], 130 nM; at ALK1 (aa166-493), 640 nM; at ALK5 (aa162-503), 3.4 µM. The IC50 against ALK6 (aa168-495) came out at 1100 nM; on ALK3 (aa198-525), 540 nM.

As for `CCC(CC)CN1C(=O)Cc2cc(-c3cncc(-c4ccc(=O)n(C(C)C)c4)c3)ccc21` [Example 40, 1-(2-ethylbutyl)-5-(1′-isopropyl-6′-oxo-1′,6′-dihydro-[3,3′-bipyridin]-5-yl)indolin-2-one], the IC50 in assay [1] was determined as 80 nM; in assay [2], 100 nM; in assay [3], 100 nM; in assay [4], 94 nM; against ALK1 (aa166-493), 900 nM; against ALK5 (aa162-503), 4.2 µM. The IC50 on ALK6 (aa168-495) worked out at 860 nM; on ALK3 (aa198-525), 800 nM.

For `CC(C)n1cc(-c2cncc(-c3cnc4c(c3)CC(=O)N4)c2)ccc1=O` [Example 41, 5-(1′-Isopropyl-6′-oxo-1′,6′-dihydro-[3,3′-bipyridin]-5-yl)-1H-pyrrolo[2,3-b]pyridin-2(3H)-one], the IC50 is 710 nM in assay [1]; 630 nM in assay [2]; 470 nM in assay [3]; 490 nM in assay [4]; 6400 nM on ALK1 (aa166-493); over 10 µM against ALK5 (aa162-503). The IC50 on ALK6 (aa168-495) was over 10000 nM; on ALK3 (aa198-525), 6300 nM.

In the case of `CC(C)n1cc(-c2cc(-c3ccc4c(c3)CC(=O)N4C)cnc2N)ccc1=O` [Example 42, 5-(2-amino-1′-isopropyl-6′-oxo-1′,6′-dihydro-[3,3′-bipyridin]-5-yl)-1-methylindolin-2-one], the IC50 in assay [1] was determined as 150 nM; in assay [2], 310 nM; in assay [3], 190 nM; in assay [4], 460 nM; against ALK1 (aa166-493) it was 1400 nM; on ALK5 (aa162-503), 5.6 µM. In addition, the results for the IC50 against ALK6 (aa168-495) and against ALK3 (aa198-525) were 3750 nM and 3400 nM, respectively.

Turning to `CC(C)n1cc(-c2nc(-c3ccc4c(c3)CC(=O)N4C)cnc2N)ccc1=O` [Example 43, 5-(5-amino-6-(1-isopropyl-6-oxo-1,6-dihydropyridin-3-yl)pyrazin-2-yl)-1-methylindolin-2-one], the IC50 was 90 nM in assay [1]; 120 nM in assay [2]; 100 nM in assay [3]; 90 nM in assay [4]; 520 nM against ALK1 (aa166-493); 1 µM on ALK5 (aa162-503). Besides, the IC50 on ALK6 (aa168-495) was determined as 2000 nM; on ALK3 (aa198-525), 600 nM.

On to `CC(C)n1nc(-c2cncc(-c3ccc4c(c3)CC(=O)N4C)c2)ccc1=O` [Example 44, 5-(5-(1-isopropyl-6-oxo-1,6-dihydropyridazin-3-yl)pyridin-3-yl)-1-methylindolin-2-one], for which the IC50 was 80 nM in assay [1]; 230 nM in assay [2]; 90 nM in assay [3]; 110 nM in assay [4]; 670 nM at ALK1 (aa166-493); 5.7 µM at ALK5 (aa162-503). For the same molecule, the IC50 came to 3050 nM on ALK6 (aa168-495) and 1000 nM against ALK3 (aa198-525).

For the molecule `CC(C)n1cc(-c2cncc(-c3ccc4c(c3)CC(=O)N4CCO)c2)ccc1=O` [Example 45, 1-(2-hydroxyethyl)-5-(1′-isopropyl-6′-oxo-1′,6′-dihydro-[3,3′-bipyridin]-5-yl)indolin-2-one], the IC50 came to 100 nM in assay [1]; 210 nM in assay [2]; 120 nM in assay [3]; 160 nM in assay [4]; 890 nM at ALK1 (aa166-493); 5 µM on ALK5 (aa162-503). For the same molecule, the IC50 on ALK6 (aa168-495) is 1250 nM; against ALK3 (aa198-525), 1100 nM.

Take `CC(C)n1cc(-c2cncc(-c3ccc4c(c3)CC(=O)N4C)n2)ccc1=O` [Example 46, 5-(6-(1-isopropyl-6-oxo-1,6-dihydropyridin-3-yl)pyrazin-2-yl)-1-methylindolin-2-one]: the IC50 in assay [1] stood at 110 nM; in assay [2], 130 nM; in assay [3], 120 nM; in assay [4], 150 nM; against ALK1 (aa166-493), 620 nM; against ALK5 (aa162-503) it was 5 µM. In addition, the figures for the IC50 on ALK6 (aa168-495) and against ALK3 (aa198-525) were 2500 nM and 930 nM, respectively.

On to `CC(C)n1cc(-c2cncc(-c3ccc4c(c3)CC(=O)N4CCCO)c2)ccc1=O` [Example 47, 1-(3-hydroxypropyl)-5-(1′-isopropyl-6′-oxo-1′,6′-dihydro-[3,3′-bipyridin]-5-yl)indolin-2-one], for which the IC50 in assay [1] is 150 nM; in assay [2] it was 280 nM; in assay [3], 140 nM; in assay [4], 175 nM; against ALK1 (aa166-493) it was 1100 nM; at ALK5 (aa162-503), 4.2 µM. Moreover, the IC50 on ALK6 (aa168-495) came out at 1500 nM; at ALK3 (aa198-525), 1120 nM.

Consider `CC(C)n1cc(-c2cncc(-c3ccc4c(c3)CS(=O)(=O)N4C)c2)ccc1=O` [Example 48, 1-isopropyl-5′-(1-methyl-2,2-dioxido-1,3-dihydrobenzo[c]isothiazol-5-yl)-[3,3′-bipyridin]-6(1H)-one], for which the IC50 turned out to be 60 nM in assay [1]; 83 nM in assay [2]; 60 nM in assay [3]; 71 nM in assay [4]; 210 nM at ALK1 (aa166-493); 2.4 µM against ALK5 (aa162-503). The IC50 at ALK6 (aa168-495) was found to be 1000 nM; against ALK3 (aa198-525) it was 283 nM.
